Results published in patent publication US20160243149A1, “NOVEL ANTI-VIRAL THERAPEUTIC” (priority 2012, published 2016).

Biological target: T1, VPg unlinkase (Homo sapiens, UniProt O95551)
T1 construct: To generate the HeLa cell homogenate used for the isolation of VPg unlinkase, 5 ml of packed HeLa cells were homogenized; endogenous in cells; host or cells: HeLa cells (uninfected); enzyme fractionated from total cell homogenate
T1 sequence (O95551 1-362): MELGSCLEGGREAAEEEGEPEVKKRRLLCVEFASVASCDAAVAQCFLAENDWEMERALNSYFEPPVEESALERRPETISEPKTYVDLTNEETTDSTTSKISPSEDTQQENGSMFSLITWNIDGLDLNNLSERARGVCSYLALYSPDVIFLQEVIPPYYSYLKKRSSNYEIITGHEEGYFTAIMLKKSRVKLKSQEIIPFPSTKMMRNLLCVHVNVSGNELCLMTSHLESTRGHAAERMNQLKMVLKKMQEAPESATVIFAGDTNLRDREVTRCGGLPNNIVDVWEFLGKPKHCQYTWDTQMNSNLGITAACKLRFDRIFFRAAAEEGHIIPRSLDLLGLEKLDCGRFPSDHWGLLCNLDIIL
Assay type: biochemical

Structure (SMILES): Cl.Nc1ncnc2c1ncn2[C@@H]1O[C@H](COC(=O)c2ccc(S(=O)(=O)F)cc2)[C@@H](O)[C@H]1O [5′FSBA]
- suppression of unlinkase activity: effectively suppressed unlinkase activity
